Where two headings read alike, the source gives them in different places.
Key:
[1] = test system: NIH 3T3 (ATCC CRL-1658) cells; assay: Cytotoxicity, MTT assay; format: cell-based; conditions: Mus musculus
Method: (§1) Before removing the frozen cell stocks from liquid nitrogen, culture medium was pre-warmed to 37° C. The frozen tube was then removed from liquid nitrogen and placed into a 37° C. water bath and shaken gently to thaw the cell stock as quickly as possible. A small portion of the pre-warmed culture medium was added to the cell solution. The cell suspension was then centrifuged at 1000 r/min for 3 minutes. The supernatant was discarded and the cells were resuspended in fresh culture medium.
(§2) NIH 3T3 (ATCC CRL-1658) and Hep G2 (ATCC HB-8065) cells were cultured with DMEM+10% FBS in 100 mm dishes. Cells were lifted for subculture or testing when confluence reached ˜60% by treating with 1× trypsin (incubated for 3 min at 37° C.). J774 (ATCC TIB-67) cells were cultured with DMEM+10% FBS in 100 mm dishes. Cells were lifted for subculture or testing when confluence reached ˜80% using a cell scraper. RAW264.7 (ATCC TIB-71) cells were cultured with DMEM+10% heat-inactivated FBS+1% pen/strep in T75 flasks. Cells were lifted for subculture or testing when confluence reached ˜80% using a cell scraper.
(§3) • 1. Cells were lifted and resuspended in culture medium. The number of cells in the cell suspension was determined using an auto-cell counter: 10 μL of the cell suspension was mixed with 10 μL 1× trypan blue (filtered with 0.2 μm PES filter) and the mixture was loaded onto a cell counting slide. Based on the concentration of viable cells, the cell suspension was further diluted to achieve the desired density. • 2. Cells were seeded in 96 well plates by adding 100 μL final cell suspension column-by-column using a multichannel pipette (5000 cells/well for NIH 3T3, 10000 cells/well for Hep G2, J774 and RAW264.7). The outer wells were block with PBS to reduce the effects of evaporation. One column was filled with only culture medium as a blank. Cells were incubated overnight before adding the test articles. • 3. Test articles were dissolved in 1×PBS (or DMSO) to obtain stocks solution. Stock solutions were pre-warmed before use. […] Serial dilutions (2-fold) of the 10× solutions were made in sterile culture tubes by diluting in 1×PBS (8 dilutions to yield 9 test concentrations). 900 μL of culture media was added to each tube to obtain final drug solution containing 10% PBS (or less than 1% DMSO) for each experimental group. • 4. The original culture medium was gently removed from the 96-well plates using a pipette. 100 μL of the test article solutions prepared in Step 3 were added to rows 2-7 of each column to obtain six replicates for each concentration. Plates were then incubated for 24 hours. • 5. MTT solutions were prepared by dissolving commercial MTT powder in 1×PBS to a concentration of 5 mg/mL. After passing through a 0.22 μm PES filter, the MTT solution was divided into 1 mL portions in sterile centrifuge tubes and stored at −20° C. • 6. MTT stock solutions were removed from the freezer to thaw at room temperature. Before adding MTT solutions, cell cultures were visually inspected and imaged using a microscope (to use as a comparison with MTT results). 10 μL of the 5 mg/mL MTT solution was added to each well and the plate was incubated for 4 hours. • 7. After 4 h incubation, the culture medium/MT solution was removed gently using a pipette. 100 μL of DMSO was added to each well using a multichannel pipette. The 96-well plates were analyzed in a plate reader using the following method: shake for 5 minutes, wait for 30 seconds, and measure absorbance at 570 nm. • 8. Data processing: The average of background Abg was calculated from the blank column. All other data was first treated by subtracting Abg. The average A. and standard deviation Se of each experimental group and the average Ac and standard deviation Sc for control group (with pure culture medium incubation) were then calculated. The cell viability was determined as Ae/Ac×100% and corresponding error as Se/Ae×100%. Significant outliers in any experimental or control group were removed. […]

[2] = test system: S. epidermidis (ATCC 14990); assay: MIC broth microdilution method, Table 3; conditions: Staphylococcus epidermidis, ATCC14990
[3] = test system: E. coli K12 (ATCC 47076); assay: MIC broth microdilution method, Table 3; conditions: Escherichia coli, ATCC47076
[4] = Cytotoxicity, MTT assay; format: cell-based; conditions: human, Hep G2, at the concentration given as IC50 bound, read-out: cell viability at the highest or lowest test concentration
Method: as §1, §2, §3

[5] = test system: Hep G2 (ATCC HB-8065) cells; assay: Cytotoxicity, MTT assay; format: cell-based; conditions: Homo sapiens, HepG2, 24 h
Method: as §1, §2, §3

[6] = Hep G2, MTT, 24 hours incubation, read-out: IC50

| Structure (SMILES) | MIC [3] [µg/mL] | IC50 [5, 6] [µg/mL] | also measured |
| --- | --- | --- | --- |
| C[N+]1(CCCCCCOc2cc(/C=C/c3cc(OCCCCCC[N+]4(C)CCCCC4)cc(OCCCCCC[N+]4(C)CCCCC4)c3)cc(OCCCCCC[N+]3(C)CCCCC3)c2)CCCCC1.[I-].[I-].[I-].[I-] [Formula N] | 128 | – | IC50 ([1]; NIH3T3, 24 h): 124 µg/mL; MIC [2]: 2 µg/mL |
| C[N+](C)(C)CCCCCCOc1cc(/C=C/c2cc(OCCCCCC[N+](C)(C)C)cc(OCCCCCC[N+](C)(C)C)c2)cc(OCCCCCC[N+](C)(C)C)c1 [Formula A] | – | – | viability at 24 h [4]: 68%; IC50 [5]: > 128 µg/mL |
| C[N+]12CC[N+](CCCOc3cc(/C=C/c4ccc(/C=C/c5cc(OCCC[N+]67CC[N+](C)(CC6)CC7)cc(OCCC[N+]67CC[N+](C)(CC6)CC7)c5)cc4)cc(OCCC[N+]45CC[N+](C)(CC4)CC5)c3)(CC1)CC2 [Formula DD] | 64 | > 128 | viability at 24 h ([4]; Hep G2 (ATCC HB-8065) cells): 85%; MIC [2]: 16 µg/mL |
| C[N+](C)(C)CCCCCCCCOc1cc(/C=C/c2cc(OCCCCCCCC[N+](C)(C)C)cc(OCCCCCCC[N+](C)(C)C)c2)cc(OCCCCCCC[N+](C)(C)C)c1.[I-].[I-].[I-].[I-] [Formula B] | – | – | IC50 [5]: 9.9 µg/mL |

Second part, led by results:

| MIC [3] [µg/mL] | Structure (SMILES) | IC50 [5, 6] [µg/mL] | also measured |
| --- | --- | --- | --- |
| 64 | C[N+](C)(C)CCCOc1cc(/C=C/c2ccc(/C=C/c3cc(OCCC[N+](C)(C)C)cc(OCCC[N+](C)(C)C)c3)cc2)cc(OCCC[N+](C)(C)C)c1 [Formula X] | > 1020 | viability at 24 h ([4]; Hep G2 (ATCC HB-8065) cells): 73% |
| 16 | CCCCCC[N+](C)(CCCCOc1cc(/C=C/c2ccc(/C=C/c3cc(OCCCC[N+](C)(CCCCCC)CCOCCOCCOC)cc(OCCCC[N+](C)(CCCCCC)CCOCCOCCOC)c3)cc2)cc(OCCCC[N+](C)(CCCCCC)CCOCCOCCOC)c1)CCOCCOCCOC (stereo not shown) [Formula KK] | – | – |
| 32 | CCCC[N+](C)(CCCCOc1cc(/C=C/c2ccc(/C=C/c3cc(OCCCC[N+](C)(CCCC)CCOCCOC)cc(OCCCC[N+](C)(CCCC)CCOCCOC)c3)cc2)cc(OCCCC[N+](C)(CCCC)CCOCCOC)c1)CCOCCOC (stereo not shown) [Formula GG] | – | IC50 ([1]; NIH3T3, NIH 3T3, MTT, 24 hours incubation, read-out: IC50): 77.8 µg/mL |
| 4 | CC(C)CCC[N+](C)(C)CCCCOc1cc(/C=C/c2ccc(/C=C/c3cc(OCCCC[N+](C)(C)CCCC(C)C)cc(OCCCC[N+](C)(C)CCCC(C)C)c3)cc2)cc(OCCCC[N+](C)(C)CCCC(C)C)c1.[I-].[I-].[I-].[I-] [Formula V] | – | – |
| 4 | CCCCCC[N+](C)(C)CCOc1cc(/C=C/c2ccc(/C=C/c3cc(OCC[N+](C)(C)CCCCCC)cc(OCC[N+](C)(C)CCCCCC)c3)cc2)cc(OCC[N+](C)(C)CCCCCC)c1.[I-].[I-].[I-].[I-] [Formula H] | 13 | – |

Source: patent publication US11713318B2, “Short conjugated oligoelectrolytes and uses thereof” (The Regents Of The University Of California, priority 2018, dated 2023)
